Test results published in patent US11998539B2, “Substituted aminoquinolones as DGKalpha inhibitors for immune activation” (Bayer Aktiengesellschaft, priority 2019, dated 2024).
Blank lines part the entries; values can stand above or below the compound they belong to.

Target: DGKα (Homo sapiens (Human), UniProt P23743)
Assay: Human DGKα kinase activity inhibition assay (ADP-Glo)
Assay type: biochemical
Conditions: recombinant full-length human DGKα, 55 μM ATP, 7 μM 1,2-dioleoyl-sn-glycerol, read-out: IC50 values of examples in in vitro human DGKa kinase activity inhibition assays
Outline: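 Recombinant full-length human DGKα (C-terminal FLAG, from insect cells) phosphorylated 1,2-dioleoyl-sn-glycerol presented in octyl-glucopyranoside micelles. ADP formed was quantified by ADP-Glo luminescence. Compounds were added from 100-fold DMSO stocks.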

Sequence of DGKα (P23743 other isoform, or with tags, fused parts or gaps): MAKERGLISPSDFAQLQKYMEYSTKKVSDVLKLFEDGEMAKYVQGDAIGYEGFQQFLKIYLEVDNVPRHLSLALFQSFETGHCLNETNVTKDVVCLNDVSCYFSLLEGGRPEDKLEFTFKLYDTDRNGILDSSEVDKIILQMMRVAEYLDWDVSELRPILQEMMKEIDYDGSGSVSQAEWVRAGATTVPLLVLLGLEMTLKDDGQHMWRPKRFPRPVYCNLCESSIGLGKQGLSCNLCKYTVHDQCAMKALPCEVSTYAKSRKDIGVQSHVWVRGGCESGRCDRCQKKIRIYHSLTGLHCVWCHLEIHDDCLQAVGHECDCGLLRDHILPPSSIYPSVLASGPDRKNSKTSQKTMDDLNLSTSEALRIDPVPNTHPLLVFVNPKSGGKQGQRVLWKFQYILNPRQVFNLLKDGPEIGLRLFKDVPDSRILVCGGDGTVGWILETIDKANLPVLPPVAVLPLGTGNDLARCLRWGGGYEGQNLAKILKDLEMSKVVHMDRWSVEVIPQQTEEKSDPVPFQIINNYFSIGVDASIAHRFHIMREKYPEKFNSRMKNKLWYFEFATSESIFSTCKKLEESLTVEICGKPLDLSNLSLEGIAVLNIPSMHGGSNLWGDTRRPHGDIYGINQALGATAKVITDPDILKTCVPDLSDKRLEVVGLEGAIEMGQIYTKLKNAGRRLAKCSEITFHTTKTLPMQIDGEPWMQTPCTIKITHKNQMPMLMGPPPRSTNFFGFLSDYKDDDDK

SMILES: Cc1ccc2c(c1)c(N1CCC(C)(c3nc4ccccc4o3)CC1)c(C(N)=O)c(=O)n2C [Example 195, 4-[4-(1,3-benzoxazol-2-yl)-4-methylpiperidin-1-yl]-1,6-dimethyl-2-oxo-1,2-dihydroquinoline-3-carboxamide]
IC50: 1.5 nM

SMILES: Cc1ccc2nc(C3CCN(c4c(C(N)=O)c(=O)n(C)c5ccc(C)cc45)CC3)oc2c1 [Example 196, 1,6-dimethyl-4-[4-(6-methyl-1,3-benzoxazol-2-yl)piperidin-1-yl]-2-oxo-1,2-dihydroquinoline-3-carboxamide]
IC50: 3.1 nM

SMILES: Cc1ccc2nc(C3(C)CCN(c4c(C(N)=O)c(=O)n(C)c5ccc(C)cc45)CC3)oc2c1 [Example 197, 1,6-dimethyl-4-[4-methyl-4-(6-methyl-1,3-benzoxazol-2-yl)piperidin-1-yl]-2-oxo-1,2-dihydroquinoline-3-carboxamide]
IC50: 2.2 nM

IC50: 2.1 nM
SMILES: Cc1ccc2oc(C3(C)CCN(c4c(C(N)=O)c(=O)n(C)c5ccc(C)cc45)CC3)nc2c1 [Example 198, 1,6-dimethyl-4-[4-methyl-4-(5-methyl-1,3-benzoxazol-2-yl)piperidin-1-yl]-2-oxo-1,2-dihydroquinoline-3-carboxamide]

SMILES: Cc1ccc2c(c1)c(N1CCC(C)(c3nc4cc(C(C)C)ccc4o3)CC1)c(C(N)=O)c(=O)n2C [Example 199, 1,6-dimethyl-4-{4-methyl-4-[5-(propan-2-yl)-1,3-benzoxazol-2-yl]piperidin-1-yl}-2-oxo-1,2-dihydroquinoline-3-carboxamide]
IC50: 3.4 nM

SMILES: Cc1ccc2c(c1)c(N1CCC(c3nc4cc(C(C)C)ccc4o3)CC1)c(C(N)=O)c(=O)n2C [Example 200, 1,6-dimethyl-2-oxo-4-{4-[5-(propan-2-yl)-1,3-benzoxazol-2-yl]piperidin-1-yl}-1,2-dihydroquinoline-3-carboxamide]
IC50: 3.9 nM

SMILES: Cc1ccc2c(c1)c(N1CCC(c3nc4cc(Cl)ccc4o3)CC1)c(C(N)=O)c(=O)n2C [Example 201, 4-[4-(5-chloro-1,3-benzoxazol-2-yl)piperidin-1-yl]-1,6-dimethyl-2-oxo-1,2-dihydroquinoline-3-carboxamide]
IC50: 1.1 nM

SMILES: Cc1ccc2c(c1)c(N1CCC(c3nc4ccc(Cl)cc4o3)CC1)c(C(N)=O)c(=O)n2C [Example 202, 4-[4-(6-chloro-1,3-benzoxazol-2-yl)piperidin-1-yl]-1,6-dimethyl-2-oxo-1,2-dihydroquinoline-3-carboxamide]
IC50: 2.7 nM

SMILES: Cc1ccc2oc(C3(C)CCN(c4c(C(N)=O)c(=O)n(C)c5ccc(Br)cc45)CC3)nc2c1 [Example 203, 6-bromo-1-methyl-4-[4-methyl-4-(5-methyl-1,3-benzoxazol-2-yl)piperidin-1-yl]-2-oxo-1,2-dihydroquinoline-3-carboxamide]
IC50: 0.9 nM

SMILES: Cc1ccc2c(c1)c(N1CCCC(c3nc4ccccc4o3)CC1)c(C#N)c(=O)n2C (stereo not drawn) [Example 204, 4-[4-(1,3-benzoxazol-2-yl)azepan-1-yl]-1,6-dimethyl-2-oxo-1,2-dihydroquinoline-3-carbonitrile]
IC50: 7 nM

SMILES: Cc1ccc2c(c1)c(N1CCCC(c3nc4ccccc4o3)CC1)c(C(N)=O)c(=O)n2C (stereo not drawn) [Example 205, 4-[4-(1,3-benzoxazol-2-yl)azepan-1-yl]-1,6-dimethyl-2-oxo-1,2-dihydroquinoline-3-carboxamide]
IC50: 4.8 nM

SMILES: Cn1c(=O)c(C#N)c(N2CCC(c3nc4ccccc4o3)CC2)c2cc(F)ccc21 [Example 206, 4-[4-(1,3-benzoxazol-2-yl)piperidin-1-yl]-6-fluoro-1-methyl-2-oxo-1,2-dihydroquinoline-3-carbonitrile]
IC50: 0.8 nM

SMILES: Cc1ccc2oc(C3(C)CCN(c4c(C#N)c(=O)n(C)c5ccc(C#N)cc45)CC3)nc2c1 [Example 207, 1-methyl-4-[4-methyl-4-(5-methyl-1,3-benzoxazol-2-yl)piperidin-1-yl]-2-oxo-1,2-dihydroquinoline-3,6-dicarbonitrile]
IC50: 2.7 nM

SMILES: Cc1ccc2oc(C3(C)CCN(c4c(C(N)=O)c(=O)n(C)c5ccc(C#N)cc45)CC3)nc2c1 [Example 208, 6-cyano-1-methyl-4-[4-methyl-4-(5-methyl-1,3-benzoxazol-2-yl)piperidin-1-yl]-2-oxo-1,2-dihydroquinoline-3-carboxamide]
IC50: 3.4 nM

SMILES: Cc1ccc2oc(C3(C)CCN(c4c(C#N)c(=O)n(C)c5ccc(C6CC(F)(F)C6)cc45)CC3)nc2c1 [Example 209, 6-(3,3-difluorocyclobutyl)-1-methyl-4-[4-methyl-4-(5-methyl-1,3-benzoxazol-2-yl)piperidin-1-yl]-2-oxo-1,2-dihydroquinoline-3-carbonitrile]
IC50: 26 nM

SMILES: Cc1ccc2oc(C3(C)CCN(c4c(C#N)c(=O)n(C)c5ccc(C6CC6)cc45)CC3)nc2c1 [Example 210, 6-cyclopropyl-1-methyl-4-[4-methyl-4-(5-methyl-1,3-benzoxazol-2-yl)piperidin-1-yl]-2-oxo-1,2-dihydroquinoline-3-carbonitrile]
IC50: 119 nM

SMILES: CCC(C)c1ccc2c(c1)c(N1CCC(C)(c3nc4cc(C)ccc4o3)CC1)c(C#N)c(=O)n2C (stereo not drawn) [Example 211, 6-(butan-2-yl)-1-methyl-4-[4-methyl-4-(5-methyl-1,3-benzoxazol-2-yl)piperidin-1-yl]-2-oxo-1,2-dihydroquinoline-3-carbonitrile]
IC50: 456 nM

SMILES: COCc1ccc2c(N3CCC(C)(c4nc5cc(C)ccc5o4)CC3)c(C#N)c(=O)n(C)c2c1 [Example 212, 7-(methoxymethyl)-1-methyl-4-[4-methyl-4-(5-methyl-1,3-benzoxazol-2-yl)piperidin-1-yl]-2-oxo-1,2-dihydroquinoline-3-carbonitrile]
IC50: 0.3 nM

IC50: 39 nM
SMILES: COCc1ccc2c(c1)c(N1CCC(C)(c3nc4cc(C)ccc4o3)CC1)c(C#N)c(=O)n2C [Example 213, 6-(methoxymethyl)-1-methyl-4-[4-methyl-4-(5-methyl-1,3-benzoxazol-2-yl)piperidin-1-yl]-2-oxo-1,2-dihydroquinoline-3-carbonitrile]

SMILES: Cc1ccc2c(c1)c(N1CCC(C)(c3nc4ccccc4o3)CC1)c(C#N)c(=O)n2C [Example 214, 4-[4-(1,3-benzoxazol-2-yl)-4-methylpiperidin-1-yl]-1,6-dimethyl-2-oxo-1,2-dihydroquinoline-3-carbonitrile]
IC50: 0.9 nM

SMILES: Cn1c(=O)c(C#N)c(N2CCC(C)(c3nc4ccccc4o3)CC2)c2cc(F)ccc21 [Example 216, 4-[4-(1,3-benzoxazol-2-yl)-4-methylpiperidin-1-yl]-6-fluoro-1-methyl-2-oxo-1,2-dihydroquinoline-3-carbonitrile]
IC50: 0.4 nM

SMILES: Cc1ccc2oc(C3CCN(c4c(C#N)c(=O)n(C)c5ccc(F)cc45)CC3)nc2c1 [Example 217, 6-fluoro-1-methyl-4-[4-(5-methyl-1,3-benzoxazol-2-yl)piperidin-1-yl]-2-oxo-1,2-dihydroquinoline-3-carbonitrile]
IC50: 1 nM

SMILES: Cc1ccc2c(N3CCC(C)(c4nc5ccccc5o4)CC3)c(C#N)c(=O)n(C)c2c1 [Example 218, 4-[4-(1,3-benzoxazol-2-yl)-4-methylpiperidin-1-yl]-1,7-dimethyl-2-oxo-1,2-dihydroquinoline-3-carbonitrile]
IC50: 0.6 nM

SMILES: Cc1ccc2c(N3CCC(c4nc5ccccc5o4)CC3)c(C#N)c(=O)n(C)c2c1 [Example 219, 4-[4-(1,3-benzoxazol-2-yl)piperidin-1-yl]-1,7-dimethyl-2-oxo-1,2-dihydroquinoline-3-carbonitrile]
IC50: 1.6 nM

SMILES: Cc1ccc2oc(C3(C)CCN(c4c(C#N)c(=O)n(C)c5cc(C)ccc45)CC3)nc2c1 [Example 220, 1,7-dimethyl-4-[4-methyl-4-(5-methyl-1,3-benzoxazol-2-yl)piperidin-1-yl]-2-oxo-1,2-dihydroquinoline-3-carbonitrile]
IC50: 1.7 nM

SMILES: Cc1ccc2oc(C3CCN(c4c(C#N)c(=O)n(C)c5cc(C)ccc45)CC3)nc2c1 [Example 221, 1,7-dimethyl-4-[4-(5-methyl-1,3-benzoxazol-2-yl)piperidin-1-yl]-2-oxo-1,2-dihydroquinoline-3-carbonitrile]
IC50: 1.8 nM

SMILES: Cc1ccc2c(N3CCC(c4nc5ccccc5s4)CC3)c(C#N)c(=O)n(C)c2c1 [Example 222, 4-[4-(1,3-benzothiazol-2-yl)piperidin-1-yl]-1,7-dimethyl-2-oxo-1,2-dihydroquinoline-3-carbonitrile]
IC50: 5.2 nM

SMILES: CCC1(c2nc3ccccc3o2)CCN(c2c(C#N)c(=O)n(C)c3cc(Br)ccc23)CC1 [Example 223, 4-[4-(1,3-benzoxazol-2-yl)-4-ethylpiperidin-1-yl]-7-bromo-1-methyl-2-oxo-1,2-dihydroquinoline-3-carbonitrile]
IC50: 1.2 nM

SMILES: Cn1c(=O)c(C#N)c(N2CCC(C)(c3nc4ccccc4o3)CC2)c2ccc(Cl)cc21 [Example 226, 4-[4-(1,3-benzoxazol-2-yl)-4-methylpiperidin-1-yl]-7-chloro-1-methyl-2-oxo-1,2-dihydroquinoline-3-carbonitrile]
IC50: 1.3 nM

IC50: 2 nM
SMILES: Cn1c(=O)c(C#N)c(N2CCC(c3nc4ccccc4o3)CC2)c2ccc(Cl)cc21 [Example 227, 4-[4-(1,3-benzoxazol-2-yl)piperidin-1-yl]-7-chloro-1-methyl-2-oxo-1,2-dihydroquinoline-3-carbonitrile]

IC50: 2.4 nM
SMILES: Cc1ccc2oc(C3(C)CCN(c4c(C#N)c(=O)n(C)c5cc(Cl)ccc45)CC3)nc2c1 [Example 228, 7-chloro-1-methyl-4-[4-methyl-4-(5-methyl-1,3-benzoxazol-2-yl)piperidin-1-yl]-2-oxo-1,2-dihydroquinoline-3-carbonitrile]

SMILES: Cc1ccc2oc(C3CCN(c4c(C#N)c(=O)n(C)c5cc(Cl)ccc45)CC3)nc2c1 [Example 229, 7-chloro-1-methyl-4-[4-(5-methyl-1,3-benzoxazol-2-yl)piperidin-1-yl]-2-oxo-1,2-dihydroquinoline-3-carbonitrile]
IC50: 3 nM

SMILES: Cn1c(=O)c(C#N)c(N2CCC(C)(c3nc4ccccc4o3)CC2)c2cccc(Cl)c21 [Example 230, 4-[4-(1,3-benzoxazol-2-yl)-4-methylpiperidin-1-yl]-8-chloro-1-methyl-2-oxo-1,2-dihydroquinoline-3-carbonitrile]
IC50: 83 nM
